One experiment has as its target Histamine H1 receptor (Cavia porcellus, UniProt P31389). Kind of experiment: Histamine H1 receptor antagonistic activity in guinea pig ileum […]. The class given is functional, tissue-based. As to conditions: read-out: pA2 (converted).
Experiment [1] deals with Histamine H1 receptor (Homo sapiens) (UniProt P35367). Particulars: U-373MG ATCC.
Description: Histamine H1 receptor antagonistic activity in U373MG human glioblastoma cells using fluorescence-labeled H1 as radioligand in Ca+2 assay

Structures are written as SMILES.

Histamine H1 receptor (Homo sapiens), sequence (P35367 whole entry): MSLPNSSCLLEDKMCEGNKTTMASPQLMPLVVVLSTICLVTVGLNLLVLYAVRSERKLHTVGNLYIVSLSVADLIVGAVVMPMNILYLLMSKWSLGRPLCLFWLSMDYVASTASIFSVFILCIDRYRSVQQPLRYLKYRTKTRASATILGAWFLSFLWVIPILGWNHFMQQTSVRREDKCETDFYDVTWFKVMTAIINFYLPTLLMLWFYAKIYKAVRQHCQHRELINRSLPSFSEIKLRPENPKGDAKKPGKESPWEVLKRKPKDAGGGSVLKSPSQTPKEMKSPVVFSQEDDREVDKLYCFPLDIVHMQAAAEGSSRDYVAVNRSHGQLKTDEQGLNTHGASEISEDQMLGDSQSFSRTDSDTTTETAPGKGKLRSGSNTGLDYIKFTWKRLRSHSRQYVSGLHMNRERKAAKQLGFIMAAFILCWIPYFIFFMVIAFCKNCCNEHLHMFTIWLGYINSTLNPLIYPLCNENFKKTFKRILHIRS
Histamine H1 receptor, sequence (P31389 whole entry): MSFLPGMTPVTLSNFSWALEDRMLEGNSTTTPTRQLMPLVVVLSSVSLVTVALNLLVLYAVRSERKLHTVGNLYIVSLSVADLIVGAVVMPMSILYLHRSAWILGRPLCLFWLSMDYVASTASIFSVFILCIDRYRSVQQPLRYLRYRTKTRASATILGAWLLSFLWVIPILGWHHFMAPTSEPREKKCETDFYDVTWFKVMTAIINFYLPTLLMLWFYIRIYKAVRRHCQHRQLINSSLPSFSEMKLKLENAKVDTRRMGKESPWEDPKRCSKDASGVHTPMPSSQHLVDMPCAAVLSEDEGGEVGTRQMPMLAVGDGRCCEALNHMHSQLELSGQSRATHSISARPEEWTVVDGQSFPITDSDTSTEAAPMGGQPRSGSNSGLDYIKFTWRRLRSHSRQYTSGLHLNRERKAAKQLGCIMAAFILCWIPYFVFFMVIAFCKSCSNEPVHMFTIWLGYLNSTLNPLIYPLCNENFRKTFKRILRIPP

The pKB is the KB on a negative log10 scale, so that one unit is a factor of ten. Higher therefore signals a small KB. As for `COc1ccc(CN(CCN(C)CCCCCCNS(=O)(=O)c2cccc3c(N(C)C)cccc23)c2ccccn2)cc1`, the Kb at Histamine H1 receptor is 17.8 nM. In experiment [1], this molecule had a pKB of 7.76.
For `COc1ccc(CN(CCN(C)CCCCN)c2ccccn2)cc1`, in that order: 22.4 nM and 7.61.
For `COc1ccc(CN(CCN(C)CCN)c2ccccn2)cc1`, in that order: 13.2 nM and 7.84.
Molecule `COc1ccc(CN(CCN(C)CCNc2ccc([N+](=O)[O-])c3nonc23)c2ccccn2)cc1` returned a negative-log KB (pKB) in experiment [1] of 8.12.
As to `COc1ccc(CN(CCN(C)CCCCCCNC(=O)c2ccc(-c3c4ccc(=[N+](C)C)cc-4oc4cc(N(C)C)ccc34)c(C(=O)[O-])c2)c2ccccn2)cc1`, on Histamine H1 receptor, the Kb is 33.1 nM. This molecule also gave a negative-log KB (pKB) in experiment [1] of 7.54.
For `COc1ccc(CN(CCN(C)CCCCCCNC(=O)c2ccc(-c3c4ccc(=O)cc-4oc4cc(O)ccc34)c(C(=O)O)c2)c2ccccn2)cc1`, in that order: 21.4 nM and 8.17.
For `COc1ccc(CN(CCN(C)CCCCCCNC(=O)c2ccc(-c3c4ccc(=N)cc-4oc4cc(N)ccc34)c(C(=O)O)c2)c2ccccn2)cc1`, in that order: 26.3 nM and 7.68.
For `COc1ccc(CN(CCN(C)CCCCNC(=O)c2ccc(-c3c4ccc(=O)cc-4oc4cc(O)ccc34)c(C(=O)O)c2)c2ccccn2)cc1`, in that order: 4.47 nM and 8.47.
Regarding `COc1ccc(CN(CCN(C)CCNC(=O)c2ccc(C(=O)O)c(-c3c4ccc(=O)cc-4oc4cc(O)ccc34)c2)c2ccccn2)cc1`, at Histamine H1 receptor, the Kb was 145 nM. In experiment [1], the pKB worked out at 6.93.
For `COc1ccc(CN(CCN(C)CCCCNC(=O)c2ccc(C(=O)O)c(-c3c4ccc(=O)cc-4oc4cc(O)ccc34)c2)c2ccccn2)cc1`, in that order: 31.6 nM and 7.81.
For `COc1ccc(CN(CCN(C)CCCCCCCCNC(=O)c2ccc(-c3c4ccc(=O)cc-4oc4cc(O)ccc34)c(C(=O)O)c2)c2ccccn2)cc1`, in that order: 3.39 nM and 8.94.
For `COc1ccc(CN(CCN(C)CCCCCCCCNC(=O)c2ccc(C(=O)O)c(-c3c4ccc(=O)cc-4oc4cc(O)ccc34)c2)c2ccccn2)cc1`, in that order: 5.01 nM and 8.53.
In the case of `COc1ccc(CN(CCN(C)CCCCCCN)c2ccccn2)cc1`, at Histamine H1 receptor, the Kb is 12.9 nM. This molecule registered a pKB in experiment [1] of 8.03.
For `COc1ccc(CN(CCN(C)CCCCCCCCN)c2ccccn2)cc1`, in that order: 9.77 nM and 8.06.
Turning to `COc1ccc(CN(CCN(C)CCNC(=O)c2ccc(-c3c4ccc(=O)cc-4oc4cc(O)ccc34)c(C(=O)O)c2)c2ccccn2)cc1`, the Kb at Histamine H1 receptor was 69.2 nM. Also, the negative-log KB (pKB) in experiment [1] came out at 7.21.
In the case of `COc1ccc(CN(CCN(C)CCNc2ccc([N+](=O)[O-])c3n[o+][n-]c23)c2ccccn2)cc1`, the Kb on Histamine H1 receptor was 4.68 nM.
For the molecule `COc1ccc(CN(CCN(C)CCCCCCNC(=O)c2ccc(-c3c4ccc5cc(O)ccc5c4oc4c3ccc3cc(=O)ccc34)c(C(=O)O)c2)c2ccccn2)cc1`, at Histamine H1 receptor, the Kb was 36.3 nM. The same molecule registered a pKB in experiment [1] of 7.18.
For `CNCCN(Cc1ccc(OC)cc1)c1ccccn1` [2-[(2-METHYLAMINOETHYL)(P-METHOXYBENZYL)AMINO]PYRIDINE], in that order: 6.61 nM and 8.12.
For `COc1ccc(CN(CCN(C)CCCCCCNC(=O)c2ccc(C(=O)O)c(-c3c4ccc(=O)cc-4oc4cc(O)ccc34)c2)c2ccccn2)cc1`, in that order: 26.3 nM and 8.4.
Regarding `COc1ccc(CN(CCN(C)CCCCCCNC(=O)CCCCCNc2ccc([N+](=O)[O-])c3nonc23)c2ccccn2)cc1`, on Histamine H1 receptor, the Kb was 1.95 nM. Moreover, in experiment [1], the pKB was 9.05.

The record behind these values is ChEMBL document CHEMBL1136672, “Synthesis and pharmacological activity of fluorescent histamine H1 receptor antagonists related to mepyramine” (Bioorg Med Chem Lett, 2003).
